# Test system: histone deacetylase (HDAC)
# Experiment: cellular acetylation assay (histone acetylation ELISA in PC3 cells)
# Type: cell-based
# Conditions: PC3 human prostate carcinoma cells, compound 1 μM, 24 h incubation, ELISA with antibodies against acetylated histone H3 or H4
# Protocol: Therein acetylation of histones is monitored in PC3 cells. High acetylation correlates with inhibition of histone deacetylase by compounds. Cell viability is monitored in parallel to estimate the cytotoxicity of compounds.
# PC3 cells, a human prostate carcinoma cell line, are seeded as 1800 cells per well of a 384-well microtiterplate in RPMI 1640 (including 5% FCS, 2 mM glutamine and pen/strep). After 48 h at 37° C. pre-diluted compounds are added to a final concentration of 1 uM. Compounds are pre-diluted in dimethyl sulfoxide (DMSO) resulting in a final concentration of DMSO of 0.5% per well.
# After 24 h incubation cell viability is determined by adding cell proliferation reagent WST-1 (Roche Molecular Biochemicals). Another 60 min later the optical density (OD) is measured (450 nm versus 690 nm).
# After measurement the cell layer is prepared for the ELISA reaction. Medium is aspirated and cells are fixed in ethanol at −20° C. for 60 min. After washing with PBS/Tween the blocking solution (PBS/5% FCS/Tween) is added and the cell layer is washed again. Antibodies against acetylated histone H3 or H4 (rabbit polyklonal IgG, Upstate Biotechnologie) are added at a dilution of 1:200 for 60 min at 37° C. As a second antibody goat anti rabbit IgG (H+L) humanIgG adsorbed-HRP conjugate (Dako) is used (1:2000 diluted). Cells are washed 3 times and the peroxidase substrate ABTS is allowed to react for 30–60 min at 37° C. The OD is measured at 405 nm.
# The percentage of acetylation is calculated after substraction of blank O.D.s: […]
row,SMILES,"cell acetylation (PC3, 1 μM) [% of control]"
1,"Nc1ccccc1NC(=O)c1ccc(CON=C2Cc3ccccc3C2)s1 [4–7, 5-(Indan-2-ylideneaminooxymethyl)-thiophene-2-carboxylic acid (2-amino-phenyl)-amide]",182 % of control
2,"COc1ccc(C=NOCc2ccc(C(=O)Nc3ccccc3N)s2)cc1OC [4–12, 5-(3,4-Dimethoxy-benzylideneaminooxymethyl)-thiophene-2-carboxylic acid (2-amino-phenyl)-amide]",137 % of control
3,"Nc1ccccc1NC(=O)c1ccc(CON=Cc2ccc3c(c2)OCCO3)s1 [Example 3, 5-(2,3-Dihydro-benzo[1,4]dioxin-6-ylmethyleneaminooxymethyl)-thiophene-2-carboxylic acid (2-amino-phenyl)-amide]",116 % of control
4,"Nc1ccccc1NC(=O)c1ccc(CON=Cc2ccc(OC(F)(F)F)cc2)s1 [4–17, 5-(4-Trifluoromethoxy-benzylideneaminooxymethyl)-thiophene-2-carboxylic acid (2-amino-phenyl)-amide]",127 % of control
5,"CC(=O)Nc1ccc(C(=O)Nc2ccccc2N)cc1 [4-acetylamino-N-(2-amino-phenyl)-benzamide, reference compound]",152 % of control
6,"COc1ccc(C(C)=NOCc2ccc(C(=O)Nc3ccccc3N)s2)cc1OC [4–9, 5-[1-(3,4-Dimethoxy-phenyl)-ethylideneaminooxymethyl]-thiophene-2-carboxylic acid (2-amino-phenyl)-amide]",158 % of control
7,"Nc1ccccc1NC(=O)c1ccc(CON=Cc2cccnc2)s1 [4–21, 5-(Pyridin-3-ylmethyleneaminooxymethyl)-thiophene-2-carboxylic acid (2-amino-phenyl)-amide]",135 % of control
8,"Nc1ccccc1NC(=O)c1ccc(CON=Cc2ccccc2)s1 [4–6, 5-Benzylideneaminooxymethyl-thiophene-2-carboxylic acid (2-amino-phenyl)-amide]",180 % of control

# Source: US7173060B2, “Oxime derivatives and their use as pharmaceutically active agents” (Hoffmann-La Roche Inc., priority 2003, dated 2007)
